Reference: patent US20240116896A1 (ATAI Life Sciences AG, priority 2022, published 2024)

Columns and labels:
Format in all cases: cell-based
5-HT2A [1] = molecular target: T1, 5-HT2A (Homo sapiens, UniProt P28223); assay: Calcium mobilization (Ca++ flux) assay, agonist mode, 5-HT2A; settings: for 5-HT2A, Ca++ flux % activation @30 uM: relative to MAX serotonin control
Text: (§1) Calcium Mobilization Assay Method (Performed by DiscoveRx Eurofins)
(§2) The Calcium No-Wash^PLUS assay monitors the activation of a GPCR via Gq secondary messenger signaling in a live cell, non-imaging assay format. Calcium mobilization in PathHunter® cell lines or other cell lines stably expressing Gq-coupled GPCRs is monitored using a calcium-sensitive dye that is loaded into cells. GPCR activation by a compound results in the release of calcium from intracellular stores and an increase in dye fluorescence that is measured in real-time.
(§3) Cell lines expressing the GPCR of interest were expanded from freezer stocks according to standard procedures. Cells were seeded in a total volume of 20 μL into black-walled, clear-bottom, Poly-D-lysine coated 384-well microplates and incubated at 37° C. for the appropriate time prior to testing.
(§4) Assays were performed in 1× Dye Loading Buffer consisting of 1× Dye, 1× Additive A and 2.5 mM Probenecid in HBSS/20 mM Hepes. Probenicid was prepared fresh. Cells were loaded with dye prior to testing. Media was aspirated from cells and replaced with 20 μL Dye Loading Buffer. Cells were incubated for 30-60 minutes at 37° C.
(§5) For agonist determination, cells were incubated with sample to induce response. After dye loading, cells were removed from the incubator and 10 μL HBSS/20 mM Hepes was added. 3× vehicle was included in the buffer when performing agonist dose curves to define the EC80 for subsequent antagonist assays. Cells were incubated for 30 minutes at room temperature in the dark to equilibrate plate temperature.
(§6) Intermediate dilution of sample stocks was performed to generate 4× sample in assay buffer. Compound agonist activity was measured on a FLIPR Tetra (MDS). Calcium mobilization was monitored for 2 minutes and 10 μL 4× sample in HBSS/20 mM Hepes was added to the cells 5 seconds into the assay.
(§7) Compound activity data was analyzed using CBIS data analysis suite (ChemInnovation, CA). For agonist mode assays, percentage activity is calculated using the following formula:
(§8) % Activity=100%×(mean RFU of test sample−mean RFU of vehicle control)/(mean MAX RFU control ligand−mean RFU of vehicle control).
(§9) In these studies, the MAX RFU was generated by using 0.1 mM serotonin for the calcium mobilization assay.

5-HT2A [2] = molecular target: T1, 5-HT2A; assay: PathHunter b-arrestin assay, agonist mode, 5-HT2A
Text: GPCR Arrestin Assay Methods
Arrestin Pathway (Performed by DiscoverX Eurofins)
The PathHunter® β-Arrestin assay monitors the activation of a GPCR in a homogenous, non-imaging assay format using a technology developed by DiscoverX called Enzyme Fragment Complementation (EFC) with β-galactosidase (β-Gal) as the functional reporter. […] EA is fused to β-Arrestin and PK is fused to the GPCR of interest.
When the GPCR is activated and β-Arrestin is recruited to the receptor, ED and EA complementation occurs, restoring β-Gal activity which is measured using chemiluminescent PathHunter® Detection Reagents.
PathHunter cell lines (DiscoveRx Eurofins) were expanded from freezer stocks according to standard procedures. Cells were seeded in a total volume of 20 μL into white walled, 384-well microplates and incubated at 37° C. for the appropriate time prior to testing. […]
b-Arrestin assay signal was generated through a single addition of 12.5 or 15 μL (50% v/v) of PathHunter Detection reagent cocktail, followed by a one-hour incubation at room temperature. Microplates were read following signal generation with a PerkinElmer Envision™ instrument for chemiluminescent signal detection.
Compound activity was analyzed using CBIS data analysis suite (ChemInnovation, CA). For agonist mode assays, percentage activity was calculated using the following formula: […]

5-HT2C = molecular target: T2, 5-HT2C (Homo sapiens, UniProt P28335); assay: Calcium mobilization (Ca++ flux) assay, agonist mode, 5-HT2C
T2 sequence (P28335 33-458): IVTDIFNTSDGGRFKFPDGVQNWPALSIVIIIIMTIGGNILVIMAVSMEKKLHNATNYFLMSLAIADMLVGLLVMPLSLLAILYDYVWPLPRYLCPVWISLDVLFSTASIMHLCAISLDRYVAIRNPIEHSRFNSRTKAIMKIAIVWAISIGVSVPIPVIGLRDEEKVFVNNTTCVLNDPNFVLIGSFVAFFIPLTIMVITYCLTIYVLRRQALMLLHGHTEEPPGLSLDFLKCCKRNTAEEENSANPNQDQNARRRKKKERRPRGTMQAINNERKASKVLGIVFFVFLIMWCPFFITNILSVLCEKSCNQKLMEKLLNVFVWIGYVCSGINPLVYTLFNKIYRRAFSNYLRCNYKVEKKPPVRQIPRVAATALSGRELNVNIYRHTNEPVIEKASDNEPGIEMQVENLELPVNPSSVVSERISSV
Text: as §1, §2
as §3, with “testing. […]” for “testing.”
as §6
Compound activity data was analyzed using CBIS data analysis suite (ChemInnovation, CA). For agonist mode assays, percentage activity is calculated using the following formula: […]

5-HT2B [3] = molecular target: T3, 5-HT2B (Homo sapiens, UniProt P41595); assay: Calcium mobilization (Ca++ flux) assay, agonist mode, 5-HT2B; settings: for 5-HT2B, Ca++ flux % activation @30 uM: relative to MAX serotonin control; for EC50: agonist mode
Text: as §1, §2, §3, §4, §5, §6, §7, §8, §9

5-HT2A [4] = molecular target: T1, 5-HT2A; assay: IPOne (IP1 HTRF) assay, CHO-K1 cells expressing human 5-HT2A; parameters: expressed in transfected cells; host or cells: CHO-K1; settings: CHO-K1, percentage of reference agonist α-Me-5-HT at its EC100
Protocol: (§10) IPOne assays were performed using stably-transfected cell lines (CHO-K1) expressing human 5-HT2A or 5-HT2B receptors. Upon activation of these receptors, Gq-mediated myo-Inositol 1 phosphate (IP1) production is detected by a Homogeneous Time-Resolved Fluorescence (HTRF) competitive immunoassay, whereby an IP1 analog coupled to a fluorophore (acceptor) competes with endogenous IP1 for binding to a labeled anti-IP1 antibody (donor). The resulting signal is inversely proportional to the concentration of IP1 in the sample. Cells were incubated with an IP1 inhibitor (to prevent degradation and allow detection) and either reference compound or test compound. α-Me-5-HT was used as the assay reference agonist. Activation of 5-HT2A or 5-HT2B receptors was measured via accumulation of IP1 detected by HTRF. Agonist activity of test compounds was expressed as a percentage of the activity of the reference agonist at its EC100 concentration.

5-HT2B [5] = molecular target: T3, 5-HT2B; assay: IPOne (IP1 HTRF) assay, CHO-K1 cells expressing human 5-HT2B; parameters: expressed in transfected cells; host or cells: CHO-K1; settings: CHO-K1, percentage of reference agonist α-Me-5-HT at its EC100
Protocol: as §10

T3 sequence (P41595 whole entry): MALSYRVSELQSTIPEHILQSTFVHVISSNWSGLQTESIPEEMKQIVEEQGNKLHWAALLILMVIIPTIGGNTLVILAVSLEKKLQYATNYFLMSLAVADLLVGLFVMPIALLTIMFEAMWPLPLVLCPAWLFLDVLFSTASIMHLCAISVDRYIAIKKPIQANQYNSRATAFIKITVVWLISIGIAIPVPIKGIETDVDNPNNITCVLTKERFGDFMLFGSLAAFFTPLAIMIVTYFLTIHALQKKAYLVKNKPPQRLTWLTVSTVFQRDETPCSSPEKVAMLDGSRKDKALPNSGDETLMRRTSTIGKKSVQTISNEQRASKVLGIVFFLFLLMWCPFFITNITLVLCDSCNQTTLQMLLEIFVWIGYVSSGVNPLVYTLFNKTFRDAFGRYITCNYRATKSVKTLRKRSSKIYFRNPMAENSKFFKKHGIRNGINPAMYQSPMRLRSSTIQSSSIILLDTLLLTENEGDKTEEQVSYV
T1 sequence (P28223 whole entry): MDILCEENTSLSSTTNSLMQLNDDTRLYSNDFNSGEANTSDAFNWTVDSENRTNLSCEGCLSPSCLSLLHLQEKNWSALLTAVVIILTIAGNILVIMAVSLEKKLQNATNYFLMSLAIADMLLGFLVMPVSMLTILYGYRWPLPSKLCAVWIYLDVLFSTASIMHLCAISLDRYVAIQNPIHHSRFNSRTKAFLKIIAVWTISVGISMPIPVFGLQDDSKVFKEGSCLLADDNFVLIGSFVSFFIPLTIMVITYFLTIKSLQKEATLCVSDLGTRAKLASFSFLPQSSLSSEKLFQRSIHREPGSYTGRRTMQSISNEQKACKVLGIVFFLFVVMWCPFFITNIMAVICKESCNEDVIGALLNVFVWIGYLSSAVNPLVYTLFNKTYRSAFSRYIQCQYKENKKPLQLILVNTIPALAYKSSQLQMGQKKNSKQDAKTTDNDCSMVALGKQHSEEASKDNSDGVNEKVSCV

OCC1CCCN1CCc1c[nH]c2ccccc12 (stereo not drawn) [Compound 3, (1-(2-(1H-indol-3-yl)ethyl)pyrrolidin-2-yl)methanol] was tested, and the EC50 (5-HT2A [1]) was 103 nM, the “5-HT2A, Ca++ flux % activation @30 uM” value (5-HT2A [1]) was 94.73% and the EC50 (5-HT2A [2]) was 1150 nM. For the same compound, the EC50 (5-HT2C) was 498 nM, the “5-HT2B, Ca++ flux % activation @30 uM” value (5-HT2B [3]) was 23.51% and the EC50 (5-HT2B [3]) was greater than 30000 nM. The activation at 0.3 µM (5-HT2A [4]) was 47.9%, the activation at 30 µM (5-HT2A [4]) was 97.5% and the activation at 0.3 µM (5-HT2B [5]) was 25.9%. The activation at 30 µM (5-HT2B [5]) was 93.9%.

With O=C(O)C1CCCN1CCc1c[nH]c2ccccc12 (stereo not drawn) [Compound 2, (2-(1H-indol-3-yl)ethyl)proline] the EC50 (5-HT2A [1]) was greater than 30000 nM and the “5-HT2A, Ca++ flux % activation @30 uM” value (5-HT2A [1]) was 2.41%.

For CN(CCO)CCc1c[nH]c2ccccc12 [Compound 6, 2-((2-(1H-indol-3-yl)ethyl)(methyl)amino)ethan-1-ol], the EC50 (5-HT2A [1]) was 101 nM and the “5-HT2A, Ca++ flux % activation @30 uM” value (5-HT2A [1]) was 42.83%.

With COC(=O)C1CCCN1CCc1c[nH]c2ccccc12 (stereo not drawn) [Compound 1, methyl (2-(1H-indol-3-yl)ethyl)prolinate] the EC50 (5-HT2A [1]) was 987 nM, the “5-HT2A, Ca++ flux % activation @30 uM” value (5-HT2A [1]) was 78.24% and the EC50 (5-HT2A [2]) was 16100 nM. The EC50 (5-HT2C) was 4160 nM, the “5-HT2B, Ca++ flux % activation @30 uM” value (5-HT2B [3]) was 11.15% and the EC50 (5-HT2B [3]) was greater than 30000 nM.

For CN(CCc1c[nH]c2ccccc12)CC(=O)O [Compound 5, N-(2-(1H-indol-3-yl)ethyl)-N-methylglycine], the EC50 (5-HT2A [1]) was greater than 30000 nM and the “5-HT2A, Ca++ flux % activation @30 uM” value (5-HT2A [1]) was 24.51%.

COc1ccc2[nH]cc(CCN3CCCC3CO)c2c1 (stereo not drawn) [Compound 30] was tested, and the activation at 0.3 µM (5-HT2A [4]) was 97.8%, the activation at 30 µM (5-HT2A [4]) was 100% and the activation at 0.3 µM (5-HT2B [5]) was 89.4%. The activation at 30 µM (5-HT2B [5]) was 98.8%.

OC1CCN(CCc2c[nH]c3ccccc23)C1 (stereo not drawn) [Compound 7, 1-(2-(1H-indol-3-yl)ethyl)pyrrolidin-3-ol] showed an activation at 0.3 µM (5-HT2A [4]) of 7.01%, an activation at 30 µM (5-HT2A [4]) of 42% and an activation at 0.3 µM (5-HT2B [5]) of 5.71%. The activation at 30 µM (5-HT2B [5]) was 28.7%.

C[C@@H](O)[C@@H]1CCCN1CCc1c[nH]c2ccccc12 [Compound 75] was tested, and the activation at 0.3 µM (5-HT2A [4]) was 23.4%, the activation at 30 µM (5-HT2A [4]) was 87.3% and the activation at 0.3 µM (5-HT2B [5]) was 5.88%. It also gave an activation at 30 µM (5-HT2B [5]) of 80.2%.

COC(=O)CN(C)CCc1c[nH]c2ccccc12 [Compound 4, methyl N-(2-(1H-indol-3-yl)ethyl)-N-methylglycinate] was tested, and the EC50 (5-HT2A [1]) was 302 nM and the “5-HT2A, Ca++ flux % activation @30 uM” value (5-HT2A [1]) was 36.92%.
